Reference: patent publication US20240133897A1, “COMPOSITIONS AND METHODS FOR IDENTIFYING AND MODULATING THROMBOTIC CONDITIONS IN A CANCER PATIENT” (Beth Israel Deaconess Medical Center, Inc., priority 2019, published 2024)

How the values were obtained:
[1] = system: HPAF-II cells; experiment: Flow cytometry of TF-bearing extracellular vesicles from HPAF-II cells after UPR induction; format: cell-based; details: for increase in the generation of TF-bearing EVs: HPAF-II cells following UPR induction, flow cytometry
Source text: (§1) The unfolded protein response (UPR) is associated with malignant transformation in pancreatic cancer, but whether or not activation of the UPR is linked to cancer thrombosis has not previously been evaluated. To determine whether UPR signaling functions in the prothrombotic transformation of pancreatic cancer, pancreatic adenocarcinoma cells (HPAF-II cells) were exposed to three UPR inducers (tunicamycin, triptolide and thapsigargin) that act via independent mechanisms. […] Release of thrombogenic material was inhibited by siRNA-mediated knockdown of UPR components including IRE1α (80%±3% decrease) or PERK (60%±10% decrease). […] Apoptosis as detected by caspase-3 cleavage was not observed under these conditions.

[2] = system: HPAF-II cells; experiment: Thrombin generation by material released from HPAF-II cells after UPR induction; format: cell-based; details: for decrease in thrombin generation (release of thrombogenic material): HPAF-II cells, UPR induced, chemical inhibition or siRNA knockdown of UPR components; for increase in thrombin generation in pelleted material: pancreatic adenocarcinoma HPAF-II cells exposed to UPR inducers, supernatant pelleted material
Source text: as §1

Row | Compound | inhibition of UPR-induced generation of TF-bearing EVs ([1]; HPAF-II cells, UPR induced) | decrease in thrombin generation (release of thrombogenic material) [2] | increase in the generation of TF-bearing EVs [1] [fold] | increase in thrombin generation in pelleted material [2] [fold]
1 | C[C@H]1CCC/C=C/[C@@H]2C[C@H](O)C[C@H]2[C@H](O)/C=C/C(=O)O1 [Brefeldin A] | inhibited |  |  | 
2 | Cn1cc(-c2ccc3c(c2)CCN3C(=O)Cc2cccc(C(F)(F)F)c2)c2c(N)ncnc21 [GSK2606414] |  | 80%±5% |  | 
3 | CN1CCN(C(=O)c2ccc(-c3ccc4c(C=O)c(O)ccc4c3)s2)CC1 [MKC-3946] |  | 70%±10% |  | 
4 | C/C=C(/C)C(=O)O[C@H]1C(C)=C2[C@H]([C@@H]1OC(=O)CCCCCCC)[C@@](C)(OC(C)=O)C[C@H](OC(=O)CCC)[C@@]1(O)[C@H]2OC(=O)[C@@]1(C)O [thapsigargin] |  |  | 3 | 3
5 | CC(C)[C@]12O[C@H]1[C@@H]1O[C@]13[C@]1(O[C@H]1C[C@H]1C4=C(CC[C@@]13C)C(=O)OC4)[C@@H]2O [triptolide] |  |  | 3 | 3
6 | tunicamycin |  |  | 3 | 3
